Assay results published in ChEMBL document CHEMBL3880428, “Sulfonamide derivative having PGD2 receptor antagonistic activity” (2012).

Key:
[1] = tested on: Rattus norvegicus; assay: Antiallergic activity in Brown Norway rat model of ovalbumin-induced asthma assessed as inhibition of infiltration of inflammatory cells in bronchoalveoli at 10 mg/kg, po qd for 3 consecutive days administered 1 hr prior to fourth exposure of antigen by hemocytometry based light microscopy relative to control; type: functional
[2] = tested on: Rattus norvegicus; assay: Antiallergic activity in Brown Norway rat model of ovalbumin-induced asthma assessed as inhibition of airway hyperresponsiveness at 10 mg/kg, po qd for 3 consecutive days administered 1 hr prior to fourth exposure of antigen relative to control; type: functional
[3] = tested on: Rattus norvegicus; assay: Antiallergic activity in Brown Norway rat model of ovalbumin-induced asthma assessed as inhibition of mucus secretion in airway lavage fluid at 10 mg/kg, po qd for 3 consecutive days administered 1 hr prior to fourth exposure of antigen by ELISA relative to control; type: functional
[4] = tested on: HEK293; assay: Selectivity ratio of IC50 for PGD2 receptor in human platelets to IC50 for human IP receptor expressed in HEK293 cells by cAMP accumulation assay; type: cell-based
[5] = tested on: HEK293; assay: Selectivity ratio of IC50 for PGD2 receptor in human platelets to IC50 for human FP receptor expressed in HEK293 cells by cAMP accumulation assay; type: cell-based
[6] = tested on: HEK293; assay: Selectivity ratio of IC50 for PGD2 receptor in human platelets to IC50 for human EP3 receptor expressed in HEK293 cells by cAMP accumulation assay; type: cell-based
[7] = tested on: HEK293; assay: Selectivity ratio of IC50 for PGD2 receptor in human platelets to IC50 for human EP4 receptor expressed in HEK293 cells by cAMP accumulation assay; type: cell-based
[8] = tested on: HEK293; assay: Selectivity ratio of IC50 for PGD2 receptor in human platelets to IC50 for human EP1 receptor expressed in HEK293 cells by cAMP accumulation assay; type: cell-based
[9] = tested on: HEK293; assay: Selectivity ratio of IC50 for PGD2 receptor in human platelets to IC50 for human TP receptor expressed in HEK293 cells by cAMP accumulation assay; type: cell-based
[10] = tested on: HEK293; assay: Selectivity ratio of IC50 for PGD2 receptor in human platelets to IC50 for human EP2 receptor expressed in HEK293 cells by cAMP accumulation assay; type: cell-based

## CC(C)Oc1ccc(S(=O)(=O)N2CCN(c3ccccc3OCC(=O)O)CC2)cc1
[1]
  inhibition in vivo at 10 mg/kg: 76%
[2]
  inhibition in vivo at 10 mg/kg: 59%
[3]
  inhibition in vivo at 10 mg/kg: 79%

## CC(C)Oc1ccc(S(=O)(=O)N2CCN(c3ccc(C(=O)NCC4CC4)c(OCC(=O)O)c3)CC2)cc1
[4]
  Ratio IC50: > 20
[5]
  Ratio IC50: > 20
[6]
  Ratio IC50: > 20
[7]
  Ratio IC50: > 20
[8]
  Ratio IC50: > 20
[9]
  Ratio IC50: > 20
[10]
  Ratio IC50: > 20

## CC(C)Oc1ccc(S(=O)(=O)N2CCN(c3ccc(-c4nccs4)c(OCC(=O)O)c3)CC2)cc1
[4]
  Ratio IC50: > 20
[5]
  Ratio IC50: > 20
[6]
  Ratio IC50: > 20
[7]
  Ratio IC50: > 20
[8]
  Ratio IC50: > 20
[9]
  Ratio IC50: > 20
[10]
  Ratio IC50: > 20

## CC(C)Oc1ccc(S(=O)(=O)N2CCN(c3ccc([N+](=O)[O-])c(OCC(=O)O)c3)CC2)cc1
[4]
  Ratio IC50: > 20
[5]
  Ratio IC50: > 20
[6]
  Ratio IC50: > 20
[7]
  Ratio IC50: > 20
[8]
  Ratio IC50: > 20
[9]
  Ratio IC50: > 20
[10]
  Ratio IC50: > 20

## CC(C)Oc1ccc(S(=O)(=O)N2CCN(c3cccc(OCC(=O)O)c3)CC2)cc1
[1]
  inhibition in vivo at 10 mg/kg: 78%
[2]
  inhibition in vivo at 10 mg/kg: 50%
[3]
  inhibition in vivo at 10 mg/kg: 78%

## CC(C)Oc1ccc(S(=O)(=O)N2CCN(c3ccc(NC(=O)c4ccccc4)c(OCC(=O)O)c3)CC2)cc1
[4]
  Ratio IC50: > 20
[5]
  Ratio IC50: > 20
[6]
  Ratio IC50: > 20
[7]
  Ratio IC50: > 20
[8]
  Ratio IC50: > 20
[9]
  Ratio IC50: > 20
[10]
  Ratio IC50: > 20

## CC(C)Oc1ccc(S(=O)(=O)N2CCC(Oc3ccc(F)cc3CCC(=O)O)CC2)cc1
[4]
  Ratio IC50: > 20
[5]
  Ratio IC50: > 20
[6]
  Ratio IC50: > 20
[7]
  Ratio IC50: > 20
[8]
  Ratio IC50: > 20
[9]
  Ratio IC50: > 20
[10]
  Ratio IC50: > 20

## CC(C)Oc1ccc(S(=O)(=O)N2CCN(c3ccc(Cl)c(OCC(=O)O)c3)C(C)C2)cc1 (stereo unspecified)
[4]
  Ratio IC50: > 20
[5]
  Ratio IC50: > 20
[6]
  Ratio IC50: > 20
[7]
  Ratio IC50: > 20
[8]
  Ratio IC50: > 20
[9]
  Ratio IC50: > 20
[10]
  Ratio IC50: > 20

## CCCNC(=O)c1ccc(N2CCN(S(=O)(=O)c3ccc(OC(C)C)cc3)CC2)cc1OCC(=O)O
[4]
  Ratio IC50: > 20
[5]
  Ratio IC50: > 20
[6]
  Ratio IC50: > 20
[7]
  Ratio IC50: > 20
[8]
  Ratio IC50: > 20
[9]
  Ratio IC50: > 20
[10]
  Ratio IC50: > 20

## COc1cccc(OC2CCN(S(=O)(=O)c3ccc(OC(C)C)cc3)CC2)c1CCC(=O)O
[4]
  Ratio IC50: > 20
[5]
  Ratio IC50: > 20
[6]
  Ratio IC50: > 20
[7]
  Ratio IC50: > 20
[8]
  Ratio IC50: > 20
[9]
  Ratio IC50: > 20
[10]
  Ratio IC50: > 20

## CNC(=O)c1ccc(N2CCN(S(=O)(=O)c3ccc(OC(C)C)cc3)CC2)cc1OCC(=O)O
[4]
  Ratio IC50: > 20
[5]
  Ratio IC50: > 20
[6]
  Ratio IC50: > 20
[7]
  Ratio IC50: > 20
[8]
  Ratio IC50: > 20
[9]
  Ratio IC50: > 20
[10]
  Ratio IC50: > 20

## COc1cccc(OC2CCN(S(=O)(=O)c3ccc(OC(C)C)cc3)CC2)c1/C=C/C(=O)O
[4]
  Ratio IC50: > 20
[5]
  Ratio IC50: > 20
[6]
  Ratio IC50: > 20
[7]
  Ratio IC50: > 20
[8]
  Ratio IC50: > 20
[9]
  Ratio IC50: > 20
[10]
  Ratio IC50: > 20

## CC(C)Oc1ccc(S(=O)(=O)N2CCN(c3ccc([N+](=O)[O-])c(NCC(=O)O)c3)CC2)cc1
[4]
  Ratio IC50: > 20
[5]
  Ratio IC50: > 20
[6]
  Ratio IC50: > 20
[7]
  Ratio IC50: > 20
[8]
  Ratio IC50: > 20
[9]
  Ratio IC50: > 20
[10]
  Ratio IC50: > 20

## CC(C)Oc1ccc(S(=O)(=O)N2CCN(c3ccc(NC(=O)c4ccccn4)c(OCC(=O)O)c3)CC2)cc1
[4]
  Ratio IC50: > 20
[5]
  Ratio IC50: > 20
[6]
  Ratio IC50: > 20
[7]
  Ratio IC50: > 20
[8]
  Ratio IC50: > 20
[9]
  Ratio IC50: > 20
[10]
  Ratio IC50: > 20

## CC(C)Oc1ccc(S(=O)(=O)N2CCN(c3cc(OCC(=O)O)cc(-c4ccoc4)c3)CC2)cc1
[4]
  Ratio IC50: > 20
[5]
  Ratio IC50: > 20
[6]
  Ratio IC50: > 20
[7]
  Ratio IC50: > 20
[8]
  Ratio IC50: > 20
[9]
  Ratio IC50: > 20
[10]
  Ratio IC50: > 20

## CC(C)Oc1ccc(S(=O)(=O)N2CCN(c3ccc(C(=O)Nc4cc(C5CC5)n[nH]4)c(OCC(=O)O)c3)CC2)cc1
[4]
  Ratio IC50: > 20
[5]
  Ratio IC50: > 20
[6]
  Ratio IC50: > 20
[7]
  Ratio IC50: > 20
[8]
  Ratio IC50: > 20
[9]
  Ratio IC50: > 20
[10]
  Ratio IC50: > 20

## CC(C)Oc1ccc(S(=O)(=O)N2CCN(c3ccc(C(=O)Nc4nc5ccccc5[nH]4)c(OCC(=O)O)c3)CC2)cc1
[4]
  Ratio IC50: > 20
[5]
  Ratio IC50: > 20
[6]
  Ratio IC50: > 20
[7]
  Ratio IC50: > 20
[8]
  Ratio IC50: > 20
[9]
  Ratio IC50: > 20
[10]
  Ratio IC50: > 20
